Results as given in the supplement of paper PMC10307832.

Columns and labels:
Assay in all cases: relative viability (nuclei count vs DMSO), 5 days (fraction); higher = more cells survive
[1] = compound: C[C@H]([C@@H](C(=O)N)NC(=O)[C@@H]1CSSC[C@@H](C(=O)N[C@H](C(=O)N[C@@H](C(=O)N[C@H](C(=O)N1)CCCCN)CC2=CNC3=CC=CC=C32)CC4=CC=C(C=C4)O)NC(=O)[C@@H](CC5=CC=CC=C5)N)O [CAP-232] + CC(C)C[C@H](NC(=O)[C@H](Cc1ccccc1)NC(=O)c1cnccn1)B(O)O [Bortezomib] (partner 0.002 µM)
Outline: (§1)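 Cells from lung cancer lines were seeded into 1536-well plates and, one day later, dosed by pin tool. Treatments were either a single drug or a fixed dose of an anchor drug with five library-drug doses (not always all listed) in √10 steps. After 5 days, nuclei were stained in a one-step fixation (final 0.05% Triton X-100, 1% formaldehyde, 1 ug/ml Hoechst) and counted on 4× images, and relative viability is the treated-to-vehicle nuclei ratio, as the median of duplicate plates.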

[2] = compound: C[C@H]([C@@H](C(=O)N)NC(=O)[C@@H]1CSSC[C@@H](C(=O)N[C@H](C(=O)N[C@@H](C(=O)N[C@H](C(=O)N1)CCCCN)CC2=CNC3=CC=CC=C32)CC4=CC=C(C=C4)O)NC(=O)[C@@H](CC5=CC=CC=C5)N)O [CAP-232] + COc1cccc2cc(-c3nc([C@H]4CC[C@H](C(=O)O)CC4)n4ncnc(N)c34)[nH]c12 [OSI-027] (partner 0.5 µM)
Outline: as §1

[3] = compound: C[C@H]([C@@H](C(=O)N)NC(=O)[C@@H]1CSSC[C@@H](C(=O)N[C@H](C(=O)N[C@@H](C(=O)N[C@H](C(=O)N1)CCCCN)CC2=CNC3=CC=CC=C32)CC4=CC=C(C=C4)O)NC(=O)[C@@H](CC5=CC=CC=C5)N)O [CAP-232] + C[C@@H](Oc1cc(-c2cnn(C3CCNCC3)c2)cnc1N)c1c(Cl)ccc(F)c1Cl [Crizotinib] (partner 1 µM)
Outline: as §1

[4] = compound: C[C@H]([C@@H](C(=O)N)NC(=O)[C@@H]1CSSC[C@@H](C(=O)N[C@H](C(=O)N[C@@H](C(=O)N[C@H](C(=O)N1)CCCCN)CC2=CNC3=CC=CC=C32)CC4=CC=C(C=C4)O)NC(=O)[C@@H](CC5=CC=CC=C5)N)O [CAP-232] + Nc1nc2[nH]cc(CCc3ccc(C(=O)N[C@@H](CCC(=O)O)C(=O)O)cc3)c2c(=O)[nH]1 [Pemetrexed] (partner 0.2 µM)
Outline: as §1

[5] = compound: C[C@H]([C@@H](C(=O)N)NC(=O)[C@@H]1CSSC[C@@H](C(=O)N[C@H](C(=O)N[C@@H](C(=O)N[C@H](C(=O)N1)CCCCN)CC2=CNC3=CC=CC=C32)CC4=CC=C(C=C4)O)NC(=O)[C@@H](CC5=CC=CC=C5)N)O [CAP-232] + Nc1ncn([C@H]2C[C@H](O)[C@@H](CO)O2)c(=O)n1 [Decitabine] (partner 2 µM)
Outline: as §1

Row | Cell Line | relative viability ([1]; first compound 0.4 µM) | relative viability ([1]; first compound 1.265 µM) | relative viability ([1]; first compound 4 µM) | relative viability ([1]; first compound 12.65 µM) | relative viability ([2]; first compound 0.4 µM) | relative viability ([2]; first compound 1.265 µM) | relative viability ([2]; first compound 4 µM) | relative viability ([2]; first compound 12.65 µM) | relative viability ([3]; first compound 0.4 µM) | relative viability ([3]; first compound 1.265 µM) | relative viability ([3]; first compound 4 µM) | relative viability ([3]; first compound 12.65 µM) | relative viability ([4]; first compound 0.4 µM) | relative viability ([4]; first compound 1.265 µM) | relative viability ([4]; first compound 4 µM) | relative viability ([4]; first compound 12.65 µM) | relative viability ([5]; first compound 0.4 µM) | relative viability ([5]; first compound 1.265 µM) | relative viability ([5]; first compound 4 µM) | relative viability ([5]; first compound 12.65 µM)
1 | NCI-H650 | 0.999 | 0.754 | 0.792 | 0.769 | 0.619 | 0.506 | 0.602 | 0.543 | 0.7 | 0.767 | 0.795 | 0.494 | 0.869 | 0.786 | 0.799 | 0.932 | 0.342 | 0.278 | 0.278 | 0.156
2 | NCI-H661 | 0.658 | 0.809 | 0.733 | 0.851 | 0.757 | 0.692 | 0.753 | 0.545 | 1 | 0.947 | 1.05 | 1.13 | 0.885 | 0.872 | 0.98 | 0.827 | 0.546 | 0.543 | 0.583 | 0.446
3 | NCI-H838 | 0.916 | 0.643 | 0.86 | 0.544 | 0.342 | 0.434 | 0.461 | 0.314 | 1.03 | 0.804 | 0.981 | 0.65 | 0.254 | 0.26 | 0.245 | 0.261 | 0.408 | 0.469 | 0.479 | 0.374
4 | NCI-H1355 | 1.27 | 1.22 | 1.39 | 1.24 | 0.41 | 0.449 | 0.331 | 0.403 | 1.02 | 1.01 | 1.22 | 1.27 | 1.03 | 0.946 | 1.19 | 1 | 0.339 | 0.33 | 0.391 | 0.338
5 | NCI-H1437 | 0.604 | 0.584 | 0.598 | 0.521 | 0.94 | 0.793 | 0.917 | 0.698 | 1.11 | 0.927 | 1.05 | 0.81 | 0.299 | 0.288 | 0.33 | 0.321 | 0.559 | 0.535 | 0.624 | 0.523
6 | NCI-H1650 | 0.196 | 0.209 | 0.214 | 0.117 | 0.637 | 0.491 | 0.756 | 0.215 | 0.98 | 0.963 | 0.966 | 0.627 | 0.436 | 0.385 | 0.451 | 0.336 | 0.404 | 0.423 | 0.554 | 0.192
7 | NCI-H1651 | 1.01 | 0.939 | 1.02 | 0.953 | 0.721 | 0.703 | 0.89 | 0.522 | 0.861 | 0.856 | 0.918 | 0.904 | 0.686 | 0.514 | 0.676 | 0.709 | 0.681 | 0.579 | 0.707 | 0.683
8 | NCI-H1666 | 0.759 | – | 0.952 | 0.393 | 0.973 | 0.809 | 0.907 | 0.769 | 1.03 | – | 0.829 | 0.852 | 0.911 | 0.887 | 0.984 | 0.874 | 0.711 | 0.735 | 0.814 | 0.796
9 | NCI-H1734 | 0.919 | 0.902 | 1.06 | 0.74 | 0.558 | 0.59 | 0.56 | 0.406 | 0.674 | 0.577 | 0.758 | 0.65 | 0.44 | 0.402 | 0.402 | 0.307 | 0.484 | 0.511 | 0.516 | 0.397
10 | NCI-H1755 | 1.05 | 0.912 | 1.15 | 0.887 | 0.699 | 0.713 | 0.754 | 0.653 | 0.988 | 0.778 | 0.976 | 0.747 | 0.398 | 0.375 | 0.514 | 0.393 | 0.734 | 0.738 | 0.761 | 0.723
11 | NCI-H1792 | 1.13 | 1.01 | 1.27 | 0.845 | 0.996 | 0.76 | 0.875 | 0.832 | 1.37 | 1.02 | 0.834 | 0.722 | 1.12 | 0.78 | 0.849 | 0.465 | 0.636 | 0.54 | 0.555 | 0.365
12 | NCI-H1915 | 1.1 | 1.05 | 1.06 | 0.95 | 0.566 | 0.601 | 0.672 | 0.325 | 1.04 | 0.915 | 1.04 | 0.961 | 0.563 | 0.41 | 0.55 | 0.464 | 0.272 | 0.227 | 0.269 | 0.25
13 | NCI-H1975 | 0.336 | 0.351 | 0.416 | 0.255 | 0.856 | 0.646 | 0.91 | 0.487 | 1.11 | 1.07 | 1.08 | 0.892 | 0.32 | 0.289 | 0.307 | 0.197 | 0.399 | 0.39 | 0.406 | 0.207
14 | NCI-H1993 | 1.26 | 1.07 | 0.966 | 0.896 | 0.604 | 0.539 | 0.544 | 0.492 | 0.884 | 0.95 | 0.885 | 0.835 | 0.602 | 0.533 | 0.553 | 0.586 | 0.569 | 0.676 | 0.608 | 0.559
